Measurements from patent publication US20240368120A1 (Terns Pharmaceuticals, Inc., priority 2023, published 2024).

Molecular target: T1, human GLP-1R receptor (Homo sapiens, UniProt P43220)
T1 construct: expressed in transfected cells
Assay: GLP-1R low expression cell assay (cAMP TR-FRET, CHO-K1_hGLP-1Rlow_clone10 cells)
Format: cell-based
Details: for EC50: cAMP TR-FRET, 30 min at 25° C.
Outline: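 CHO-K1 cells stably expressing low surface human GLP-1R (clone10), 1,000 cells/well, exposed to 10-point 3-fold compound dilutions for 30 min at 25 °C. cAMP measured by TR-FRET (Eu-cAMP tracer/ULight-anti-cAMP, 15 min). EC50 from Hill fit of duplicate percent activation relative to a parallel GLP-1 control agonist.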

[1] = maximum activation relative to control GLP-1 peptide agonist

T1 sequence (P43220 24-463): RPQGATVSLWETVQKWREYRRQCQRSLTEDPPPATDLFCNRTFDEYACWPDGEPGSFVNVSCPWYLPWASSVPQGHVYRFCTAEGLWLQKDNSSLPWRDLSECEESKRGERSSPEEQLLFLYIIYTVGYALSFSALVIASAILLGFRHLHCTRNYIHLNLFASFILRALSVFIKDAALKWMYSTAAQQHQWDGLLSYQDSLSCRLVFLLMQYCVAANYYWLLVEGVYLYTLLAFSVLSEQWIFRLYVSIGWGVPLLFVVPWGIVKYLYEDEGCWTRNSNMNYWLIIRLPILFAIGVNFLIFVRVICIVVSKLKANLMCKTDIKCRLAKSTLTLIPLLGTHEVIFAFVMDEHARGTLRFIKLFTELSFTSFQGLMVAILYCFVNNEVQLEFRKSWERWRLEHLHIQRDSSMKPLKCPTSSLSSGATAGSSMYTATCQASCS

| SMILES | EC50 [nM] | Emax [1] [%] | GLP-1R Low Expression Cell Assay Emax (%) [1] |
| --- | --- | --- | --- |
| Cn1c(CN2CCC(c3c(F)cccc3OCc3ccc(C#N)cc3F)CC2)nc2c(OC(F)F)cc(C(=O)O)cc21 [Compound 146, 2-((4-(2-((4-Cyano-2-fluorobenzyl)oxy)-6-fluorophenyl)piperidin-1-yl)methyl)-4-(difluoromethoxy)-1-methyl-1H-benzo[d]imidazole-6-carboxylic acid] | > 1000 | 50 to 85 | – |
| COc1cc(C(=O)O)cc2c1nc([C@H](C)N1CCC(c3cccc(OCc4ccc(C#N)cc4F)n3)CC1)n2C [Compound 102, (S)-2-(1-(4-(6-((4-Cyano-2-fluorobenzyl)oxy)pyridin-2-yl)piperidin-1-yl)ethyl)-4-methoxy-1-methyl-1H-benzo[d]imidazole-6-carboxylic acid] | 10 to 100 | > 85 | – |
| Cn1c(CN2CCC(c3cccc(OCc4ccc(Cl)cc4F)n3)CC2)nc2c(OCC(F)F)cc(C(=O)O)cc21 [Compound 169, 2-((4-(6-((4-Chloro-2-fluorobenzyl)oxy)pyridin-2-yl)piperidin-1-yl)methyl)-4-(2,2-difluoroethoxy)-1-methyl-1H-benzo[d]imidazole-6-carboxylic acid] | < 10 | > 85 | – |
| COc1ccc(C2CCN(Cc3nc4c(OC(F)F)cc(C(=O)O)cc4n3C)CC2)cc1OCc1ccc(Cl)cc1F [Compound 230, 2-((4-(3-((4-Chloro-2-fluorobenzyl)oxy)-4-methoxyphenyl)piperidin-1-yl)methyl)-4-(difluoromethoxy)-1-methyl-1H-benzo[d]imidazole-6-carboxylic acid] | > 1000 | < 25 | – |
| COCCOCCOCCOCCOCCOc1cc(C(=O)O)cc2c1nc(CN1CCC(c3cccc4c3O[C@](C)(c3ccc(Cl)cn3)O4)CC1)n2Cc1cncs1 [Compound 5, (R)-4-((2,5,8,11,14-pentaoxahexadecan-16-yl)oxy)-2-((4-(2-(5-chloropyridin-2-yl)-2-methylbenzo[d][1,3]dioxol-4-yl)piperidin-1-yl)methyl)-1-(thiazol-5-ylmethyl)-1H-benzo[d]imidazole-6-carboxylic acid] | > 1000 | < 25 | – |
| C[C@]1(c2ccc(Cl)cn2)Oc2cccc(C3CCN(Cc4nc5cc(C(=O)O)cc6c5n4CCO6)CC3)c2O1 [Compound 75, (S)-2-((4-(2-(5-chloropyridin-2-yl)-2-methylbenzo[d][1,3]dioxol-4-yl)piperidin-1-yl)methyl)-3,4-dihydro-5-oxa-1,2a-diazaacenaphthylene-7-carboxylic acid] | > 1000 | < 25 | – |
| COc1c(OCc2ccc(C#N)cc2F)cccc1C1CCN(Cc2nc3c(OC(F)F)cc(C(=O)O)cc3n2C)CC1 [Compound 144, 2-((4-(3-((4-Cyano-2-fluorobenzyl)oxy)-2-methoxyphenyl)piperidin-1-yl)methyl)-4-(difluoromethoxy)-1-methyl-1H-benzo[d]imidazole-6-carboxylic acid] | > 1000 | < 25 | – |
| Cn1c(CN2CCC(c3cccc4c3OC(c3ccc(Cl)cc3F)C=C4)CC2)nc2c(OC(F)F)cc(C(=O)O)cc21 (single isomer, unassigned) [Compound 175] | < 10 | > 85 | – |
| Cn1c(CN2CCC(c3cccc(OCc4ccc(Cl)cc4F)n3)CC2)nc2c(OC(F)F)cc(-c3noc(=O)[nH]3)cc21 [Compound 236, 3-(2-((4-(6-((4-Chloro-2-fluorobenzyl)oxy)pyridin-2-yl)piperidin-1-yl)methyl)-4-(difluoromethoxy)-1-methyl-1H-benzo[d]imidazol-6-yl)-1,2,4-oxadiazol-5 (4H)-one] | 100 to 1000 | 50 to 85 | – |
| COc1cc(C(=O)O)cc2c1nc([C@H](C)N1CCC(c3cccc4c3O[C@@](C)(c3ccc(Cl)cn3)O4)CC1)n2C [Compound 96, 2-((S)-1-(4-((S)-2-(5-Chloropyridin-2-yl)-2-methylbenzo[d][1,3]dioxol-4-yl)piperidin-1-yl)ethyl)-4-methoxy-1-methyl-1H-benzo[d]imidazole-6-carboxylic acid] | 10 to 100 | > 85 | – |

The remaining lines, values ahead:

| EC50 [nM] | Emax [1] [%] | GLP-1R Low Expression Cell Assay Emax (%) [1] | SMILES |
| --- | --- | --- | --- |
| > 1000 | 25 to 50 | – | Cn1c(CN2CCC(c3cccc(OCc4ccc(Cl)cc4F)c3)CC2)nc2c(OC(F)F)cc(NCC(=O)O)cc21 [Compound 264, (2-((4-(3-((4-chloro-2-fluorobenzyl)oxy)phenyl)piperidin-1-yl)methyl)-4-(difluoromethoxy)-1-methyl-1H-benzo[d]imidazol-6-yl)glycine] |
| < 10 | > 85 | – | Cn1c(CN2CCC(c3cccc(OCc4cc(F)c(C#N)cc4F)n3)CC2)nc2c(OC(F)F)cc(C(=O)O)cc21 [Compound 366, 2-((4-(6-((4-Cyano-2,5-difluorobenzyl)oxy)pyridin-2-yl)piperidin-1-yl)methyl)-4-(difluoromethoxy)-1-methyl-1H-benzo[d]imidazole-6-carboxylic acid] |
| 10 to 100 | > 85 | – | COc1cc(C#N)ncc1COc1cccc(C2CCN(Cc3nc4c(OC(F)F)cc(C(=O)O)cc4n3C)CC2)n1 [Compound 354] |
| 100 to 1000 | > 85 | – | Cn1c(CN2CCC(c3cccc(OCc4ccc(Cl)cc4F)n3)CC2)nc2ccc(C(=O)O)c(O)c21 [Compound 341, 2-((4-(6-((4-Chloro-2-fluorobenzyl)oxy)pyridin-2-yl)piperidin-1-yl)methyl)-7-hydroxy-1-methyl-1H-benzo[d]imidazole-6-carboxylic acid] |
| 10 to 100 | > 85 | – | Cn1c(CN2CCC(c3cccc4c3O[C@@H](c3ccc(Cl)cc3F)CO4)CC2)nc2c(OC(F)F)cc(C(=O)O)cc21 [Compound 334, (S)-2-((4-(3-(4-Chloro-2-fluorophenyl)-2,3-dihydrobenzo[b][1,4]dioxin-5-yl)piperidin-1-yl)methyl)-4-(difluoromethoxy)-1-methyl-1H-benzo[d]imidazole-6-carboxylic acid] |
| < 10 | > 85 | – | Cn1c(CN2CCC(c3cccc(OCc4ccc(Cl)cc4OC(F)F)n3)CC2)nc2c(OC(F)F)cc(C(=O)O)cc21 [Compound 246, 2-((4-(6-((4-Chloro-2-(difluoromethoxy)benzyl)oxy)pyridin-2-yl)piperidin-1-yl)methyl)-4-(difluoromethoxy)-1-methyl-1H-benzo[d]imidazole-6-carboxylic acid] |
| 10 to 100 | > 85 | – | COc1cc(C(=O)O)nc2c1nc(CN1CCC(c3cccc(OCc4ccc(Cl)cc4F)n3)CC1)n2C [Compound 324, 2-((4-(6-((4-Chloro-2-fluorobenzyl)oxy)pyridin-2-yl)piperidin-1-yl)methyl)-7-methoxy-3-methyl-3H-imidazo[4,5-b]pyridine-5-carboxylic acid] |
| 10 to 100 | > 85 | – | COc1c(F)c(C(=O)O)cc2c1nc(CN1CCC(c3cccc(OCc4ccc(Cl)cc4F)n3)CC1)n2C [Compound 337, 2-((4-(6-((4-Chloro-2-fluorobenzyl)oxy)pyridin-2-yl)piperidin-1-yl)methyl)-5-fluoro-4-methoxy-1-methyl-1H-benzo[d]imidazole-6-carboxylic acid] |
| < 10 | – | ++++ (Emax is >85%) | N#Cc1ccc(COc2cccc(C3CCN(Cc4nc5ccc(C(=O)O)c(O)c5n4C[C@@H]4CCO4)CC3)n2)c(F)c1 [Compound 377, (S)-2-((4-(6-((4-Cyano-2-fluorobenzyl)oxy)pyridin-2-yl)piperidin-1-yl)methyl)-7-hydroxy-1-(oxetan-2-ylmethyl)-1H-benzo[d]imidazole-6-carboxylic acid] |
